Active and inactive are the calls of the source. The calls are words filed in the database; no cut-off is given here.
Tests used:
[1] = molecular target: Mitogen-activated protein kinase 14 (Homo sapiens, UniProt Q16539); assay: NanoBRET (MAPK14)
[2] = molecular target: Mitogen-activated protein kinase 11 (Homo sapiens, UniProt Q15759); assay: NanoBRET (MAPK11)
[3] = molecular target: Heat shock protein beta-1 (Homo sapiens, UniProt P04792); assay: Inhibition of HSP27 (Ser82) (Western blot)
Heat shock protein beta-1, sequence (P04792 whole entry): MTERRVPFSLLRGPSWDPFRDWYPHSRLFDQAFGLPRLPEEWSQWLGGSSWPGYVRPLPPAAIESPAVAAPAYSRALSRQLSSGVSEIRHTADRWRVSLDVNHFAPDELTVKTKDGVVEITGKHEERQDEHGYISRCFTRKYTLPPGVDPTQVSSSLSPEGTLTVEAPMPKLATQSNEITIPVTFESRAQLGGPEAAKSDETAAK

Mitogen-activated protein kinase 11, sequence (Q15759 whole entry): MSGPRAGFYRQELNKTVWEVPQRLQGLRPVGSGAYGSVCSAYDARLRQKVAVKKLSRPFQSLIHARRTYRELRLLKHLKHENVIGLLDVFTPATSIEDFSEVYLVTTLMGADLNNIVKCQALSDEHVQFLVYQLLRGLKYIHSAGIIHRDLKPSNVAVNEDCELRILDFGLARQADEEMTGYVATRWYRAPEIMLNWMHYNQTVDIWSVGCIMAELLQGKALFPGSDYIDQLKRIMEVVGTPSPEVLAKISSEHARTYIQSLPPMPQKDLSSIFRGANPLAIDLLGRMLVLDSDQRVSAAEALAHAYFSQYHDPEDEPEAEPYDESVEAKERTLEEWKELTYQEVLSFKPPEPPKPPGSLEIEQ
Mitogen-activated protein kinase 14, sequence (Q16539 whole entry): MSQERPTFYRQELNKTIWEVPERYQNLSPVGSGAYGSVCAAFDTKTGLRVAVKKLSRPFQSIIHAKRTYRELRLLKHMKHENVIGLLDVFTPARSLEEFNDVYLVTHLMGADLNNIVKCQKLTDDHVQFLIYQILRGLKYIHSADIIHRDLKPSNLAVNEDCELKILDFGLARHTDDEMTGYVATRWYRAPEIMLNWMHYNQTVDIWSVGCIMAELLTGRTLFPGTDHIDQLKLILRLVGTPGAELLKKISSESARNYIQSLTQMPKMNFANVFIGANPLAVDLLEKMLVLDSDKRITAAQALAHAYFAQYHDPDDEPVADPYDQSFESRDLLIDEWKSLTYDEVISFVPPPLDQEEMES

| Structure (SMILES) | IC50 [1] | IC50 [2] | IC50 [3] |
| --- | --- | --- | --- |
| CN(C(=O)c1ccccc1)c1cc(N(C)c2ccc3c(c2)CCc2ccc(C(=O)NCCN4CCOCC4)cc2C3=O)ccc1F [FM-743] | 11.3 µM (not active) | 16.2 µM (not active) | – |
| O=C(NCCN1CCOCC1)c1ccc2c(c1)C(=O)c1ccc(Nc3ccc(F)c(NC(=O)c4ccccc4)c3)cc1CC2 [FS-694] | – | 0.0169 µM (active) | < 1 µM (active) |

From ChEMBL document CHEMBL4507314 (2021)
